Data taken from PubChem BioAssay AID248 (DTP/NCI, 2004).
Values joined by “and” are separate entries in the source; they are usually repeats but may differ in a detail not shown here. Equal entries are not always repeated. Inconclusive results and toxic doses are left out.

System: L1210 leukemia ip in BDF1 mice, survival T/C
Experiment: NCI In Vivo Anticancer Drug Screen. Data for tumor model L1210 Leukemia (intraperitoneal) in B6D2F1 (BDF1) mice
Conditions: endpoint: mean survival time, higher = longer survival
Method in brief: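 In this screen, tumor-bearing mice given compound are compared to those given vehicle, and their survival values are reported as a treated-to-control quotient.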

[1] = dose: 50.0 mg/kg/injection, schedule: Q01DX001 (ip), vehicle: saline
[2] = dose: 100.0 mg/kg/injection, schedule: Q01DX001 (ip), vehicle: saline
[3] = dose: 200.0 mg/kg/injection, schedule: Q01DX001 (ip), vehicle: saline
[4] = dose: 400.0 mg/kg/injection, schedule: Q01DX001 (ip), vehicle: saline
[5] = dose: 100.0 mg/kg/injection, schedule: Q01DX009 (ip), vehicle: Klucel (hydroxypropylcellulose) (HPC)
[6] = dose: 200.0 mg/kg/injection, schedule: Q01DX009 (ip), vehicle: Klucel (hydroxypropylcellulose) (HPC)
[7] = dose: 400.0 mg/kg/injection, schedule: Q01DX009 (ip), vehicle: Klucel (hydroxypropylcellulose) (HPC)
[8] = dose: 100.0 mg/kg/injection, schedule: Q04DX003 (ip), vehicle: saline with Tween-80
[9] = dose: 200.0 mg/kg/injection, schedule: Q04DX003 (ip), vehicle: saline with Tween-80
[10] = dose: 400.0 mg/kg/injection, schedule: Q04DX003 (ip), vehicle: saline with Tween-80
[11] = dose: 100.0 mg/kg/injection, schedule: Q01DX009 (ip), vehicle: saline with Tween-80
[12] = dose: 200.0 mg/kg/injection, schedule: Q01DX009 (ip), vehicle: saline with Tween-80
[13] = dose: 100.0 mg/kg/injection, schedule: Q04DX003 (ip), vehicle: Klucel (hydroxypropylcellulose) (HPC)
[14] = dose: 200.0 mg/kg/injection, schedule: Q04DX003 (ip), vehicle: Klucel (hydroxypropylcellulose) (HPC)
[15] = dose: 400.0 mg/kg/injection, schedule: Q04DX003 (ip), vehicle: Klucel (hydroxypropylcellulose) (HPC)
[16] = dose: 400.0 mg/kg/injection, schedule: Q01DX009 (ip), vehicle: saline with Tween-80

O=C(/C=C(\S)c1ccccc1)c1ccccc1
T/C [1]: 101 % of control
T/C [2]: 104 % of control
T/C [3]: 98 % of control
T/C [4]: 101 % of control

CN1CCN(C)P1(=O)N1CCCC1
T/C [2]: 107 % of control
T/C [3]: 94 % of control
T/C [4]: 94 % of control

CCN(C)CCC(C=NCC(CCN(C)CC)(CCN(C)CC)c1cccc2ccccc12)(CCN(C)CC)c1cccc2ccccc12
T/C (dose: 6.25 mg/kg/injection, schedule: Q01DX009 (ip), vehicle: saline): 103 % of control
T/C (dose: 12.5 mg/kg/injection, schedule: Q01DX009 (ip), vehicle: saline): 96 % of control
T/C (dose: 12.5 mg/kg/injection, schedule: Q04DX003 (ip), vehicle: saline): 101 % of control
T/C (dose: 25.0 mg/kg/injection, schedule: Q01DX009 (ip), vehicle: saline): 111 % of control
T/C (dose: 25.0 mg/kg/injection, schedule: Q04DX003 (ip), vehicle: saline): 106 % of control

O=C(O)c1ccc(N=Cc2c(Cl)cccc2Cl)cc1
T/C [5]: 104 % of control
T/C [6]: 101 % of control
T/C [7]: 104 % of control

CCNC(=O)OCCc1c2ccccc2[n+]([O-])c2ccccc12
T/C [8]: 96 % of control
T/C [9]: 102 % of control
T/C [10]: 90 % of control

O=C1CC(=C2C(=O)c3ccccc3C2=O)c2ccccc21
T/C [8]: 95 % of control
T/C [9]: 97 % of control
T/C [10]: 106 % of control

Cc1ccc(C)n1CCO
T/C (dose: 44.0 mg/kg/injection, schedule: Q01DX Z (ip), vehicle: saline): 106 % of control
T/C (dose: 66.0 mg/kg/injection, schedule: Q01DX Z (ip), vehicle: saline): 94 % of control
T/C (dose: 100.0 mg/kg/injection, schedule: Q01DX Z (ip), vehicle: saline): 96 % of control

Nc1ccc(C(=O)NCCCC(=O)O)cc1
T/C [2]: 108 % of control
T/C [3]: 103 % of control
T/C [4]: 95 % of control

CC(=O)c1c[nH]c2c(O)ccc(O)c12
T/C (dose: 6.25 mg/kg/injection, schedule: Q04DX002 (ip), vehicle: Klucel (hydroxypropylcellulose) (HPC)): 93 % of control
T/C (dose: 12.5 mg/kg/injection, schedule: Q04DX002 (ip), vehicle: Klucel (hydroxypropylcellulose) (HPC)): 96 % of control
T/C (dose: 25.0 mg/kg/injection, schedule: Q04DX002 (ip), vehicle: Klucel (hydroxypropylcellulose) (HPC)): 99 % of control and 107 % of control

CCOC(=O)c1ccc(N(CCOS(C)(=O)=O)CCOS(C)(=O)=O)cc1
T/C (dose: 7.1 mg/kg/injection, schedule: Q01DX015 (ip), vehicle: saline): 98 % of control
T/C (dose: 10.0 mg/kg/injection, schedule: Q01DX015 (ip), vehicle: saline): 102 % of control
T/C (dose: 16.0 mg/kg/injection, schedule: Q01DX015 (ip), vehicle: saline): 108 % of control
T/C (dose: 25.0 mg/kg/injection, schedule: Q01DX015 (ip), vehicle: saline): 113 % of control
T/C (dose: 75.0 mg/kg/injection, schedule: Q01DX001 (ip), vehicle: saline): 109 % of control
T/C (dose: 100.0 mg/kg/injection, schedule: Q01DX015 (ip), vehicle: saline): 87 % of control
T/C (dose: 300.0 mg/kg/injection, schedule: Q01DX001 (ip), vehicle: saline): 120 % of control
T/C (dose: 600.0 mg/kg/injection, schedule: Q01DX001 (ip), vehicle: saline): 122 % of control
T/C (dose: 1000.0 mg/kg/injection, schedule: Q01DX001 (ip), vehicle: saline): 116 % of control

COC(=O)c1ccc(NCC(=N)N)cc1
T/C [2]: 95 % of control
T/C [3]: 107 % of control

CNC(=O)Oc1cccc2c1C(=O)OC2=O
T/C (dose: 100.0 mg/kg/injection, schedule: Q01DX001 (ip), vehicle: other): 93 % of control
T/C (dose: 100.0 mg/kg/injection, schedule: Q04DX003 (ip), vehicle: other): 94 % of control
T/C (dose: 200.0 mg/kg/injection, schedule: Q01DX001 (ip), vehicle: other): 90 % of control
T/C (dose: 200.0 mg/kg/injection, schedule: Q04DX003 (ip), vehicle: other): 94 % of control
T/C (dose: 400.0 mg/kg/injection, schedule: Q04DX003 (ip), vehicle: other): 98 % of control

CCOC(=O)c1ccc(Nc2sc(C(=O)c3ccc(C)cc3C)c(N)c2C#N)cc1
T/C (dose: 100.0 mg/kg/injection, schedule: Q04DX002 (ip), vehicle: gum acacia): 89 % of control
T/C (dose: 200.0 mg/kg/injection, schedule: Q04DX002 (ip), vehicle: gum acacia): 92 % of control
T/C (dose: 400.0 mg/kg/injection, schedule: Q04DX002 (ip), vehicle: gum acacia): 99 % of control

CCOC(=N)CC(O)C(Cl)(Cl)Cl (stereo not given)
T/C (dose: 100.0 mg/kg/injection, schedule: Q04DX002 (ip), vehicle: saline with Tween-80): 99 % of control
T/C (dose: 200.0 mg/kg/injection, schedule: Q04DX002 (ip), vehicle: saline with Tween-80): 103 % of control
T/C (dose: 400.0 mg/kg/injection, schedule: Q04DX002 (ip), vehicle: saline with Tween-80): 92 % of control

Cc1ccc([I+]c2ccc(C)cc2)cc1
T/C (dose: 8.0 mg/kg/injection, schedule: Q04DX002 (ip), vehicle: saline): 101 % of control
T/C (dose: 16.0 mg/kg/injection, schedule: Q04DX002 (ip), vehicle: saline): 92 % of control
T/C (dose: 32.0 mg/kg/injection, schedule: Q04DX002 (ip), vehicle: saline): 92 % of control

CC1C=CC(C(=O)Nc2ccc(Cl)c(Cl)c2)N1C (stereo not given)
T/C (dose: 50.0 mg/kg/injection, schedule: Q01DX009 (ip), vehicle: saline with Tween-80): 94 % of control
T/C [11]: 91 % of control
T/C [12]: 93 % of control

[Br][Hg][Br].c1ccc(N=P(c2ccccc2)(c2ccccc2)c2ccccc2)cc1
T/C (dose: 9.38 mg/kg/injection, schedule: Q01DX001 (ip), vehicle: other): 95 % of control
T/C (dose: 18.75 mg/kg/injection, schedule: Q01DX001 (ip), vehicle: other): 95 % of control
T/C (dose: 37.5 mg/kg/injection, schedule: Q01DX001 (ip), vehicle: other): 100 % of control

CC(=O)Nc1nc(Cl)c(N)c(SCc2ccccc2)n1
T/C (dose: 100.0 mg/kg/injection, schedule: Q01DX001 (ip), vehicle: Klucel (hydroxypropylcellulose) (HPC)): 98 % of control
T/C [13]: 91 % of control
T/C (dose: 200.0 mg/kg/injection, schedule: Q01DX001 (ip), vehicle: Klucel (hydroxypropylcellulose) (HPC)): 98 % of control
T/C [14]: 92 % of control
T/C (dose: 400.0 mg/kg/injection, schedule: Q01DX001 (ip), vehicle: Klucel (hydroxypropylcellulose) (HPC)): 98 % of control
T/C [15]: 92 % of control

CCNC(=O)NC(CSCSC)C(=O)OC (stereo not given)
T/C [11]: 98 % of control
T/C [8]: 104 % of control
T/C [12]: 105 % of control
T/C [9]: 105 % of control
T/C [16]: 96 % of control
T/C [10]: 102 % of control

N#Cc1ccc2c(c1)C([P+](c1ccccc1)(c1ccccc1)c1ccccc1)c1ccccc1-2 (stereo not given)
T/C (dose: 75.0 mg/kg/injection, schedule: Q01DX001 (ip), vehicle: carboxymethylcellulose (CMC)): 88 % of control
T/C (dose: 300.0 mg/kg/injection, schedule: Q01DX001 (ip), vehicle: carboxymethylcellulose (CMC)): 92 % of control

C#CCN(C)/N=N/c1nc[nH]c1C(N)=O
T/C (dose: 50.0 mg/kg/injection, schedule: Q04DX003 (ip), vehicle: Klucel (hydroxypropylcellulose) (HPC)): 104 % of control
T/C [5]: 157 % of control
T/C [13]: 109 % of control and 116 % of control
T/C [6]: 118 % of control
T/C [14]: 108 % of control
T/C [7]: 88 % of control
T/C [15]: 117 % of control

COc1ccc([N+](=O)[O-])cc1[I+]c1cc([N+](=O)[O-])ccc1OC
T/C [1]: 111 % of control
T/C [2]: 90 % of control
T/C [3]: 96 % of control
T/C [4]: 90 % of control

CCCC(OC(C[N+](=O)[O-])C(Cl)(Cl)Cl)c1ccccc1 (stereo not given)
T/C [11]: 97 % of control
T/C [8]: 98 % of control
T/C [12]: 101 % of control
T/C [9]: 96 % of control
T/C [16]: 107 % of control
T/C [10]: 96 % of control

CCC(C)(O)CCCC(C)C (stereo not given)
T/C (dose: 100.0 mg/kg/injection, schedule: Q04DX003 (ip), vehicle: saline): 97 % of control
T/C (dose: 200.0 mg/kg/injection, schedule: Q04DX003 (ip), vehicle: saline): 100 % of control
T/C (dose: 400.0 mg/kg/injection, schedule: Q04DX003 (ip), vehicle: saline): 92 % of control
